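In this assay, cells in 96-well plates receive the compound at five concentrations for 48 hours. Endpoints are linearly interpolated between the surrounding concentrations. The concentration for full growth arrest is given as TGI.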
Columns and labels:
Assay in all cases: growth of human tumour cells (NCI), 48 h
[1] = test system: HCT-15 colon
[2] = test system: SF-295 CNS
[3] = test system: CAKI-1 renal
[4] = test system: A498 renal
[5] = test system: BT-549 breast
[6] = test system: A549 NSCLC
[7] = test system: EKVX NSCLC
[8] = test system: SR leukemia
[9] = test system: LOX IMVI melanoma
[10] = test system: SK-MEL-28 melanoma
[11] = test system: KM12 colon
[12] = test system: IGROV1 ovarian
[13] = test system: MDA-MB-231 breast
[14] = test system: HOP-62 NSCLC
[15] = test system: RXF 393 renal
[16] = test system: UACC-257 melanoma
[17] = test system: K-562 leukemia
[18] = test system: MALME-3M melanoma
[19] = test system: U251 CNS
[20] = test system: OVCAR-8 ovarian
[21] = test system: HT29 colon
[22] = test system: SW-620 colon
[23] = test system: UO-31 renal
[24] = test system: NCI-H23 lung
[25] = test system: SF-539 CNS
[26] = test system: OVCAR-5 ovarian
[27] = test system: NCI-H226 lung
[28] = test system: TK-10 renal
[29] = test system: SF-268 CNS
[30] = test system: SK-OV-3 ovarian
[31] = test system: ACHN renal
[32] = test system: 786-0 renal
[33] = test system: PC-3 prostate
[34] = test system: HCC-2998 colon
[35] = test system: M14 melanoma
[36] = test system: MDA-N
[37] = test system: NCI/ADR-RES ovarian
[38] = test system: SNB-75 CNS
[39] = test system: HS 578T breast
[40] = test system: NCI-H522 lung
[41] = test system: MCF7 breast
[42] = test system: NCI-H460 lung
[43] = test system: SK-MEL-2 melanoma
[44] = test system: COLO 205 colon
[45] = test system: OVCAR-4 ovarian
[46] = test system: MDA-MB-435
[47] = test system: SN12C renal
[48] = test system: HL-60(TB) leukemia
[49] = test system: OVCAR-3 ovarian
[50] = test system: DU-145 prostate
[51] = test system: HOP-92 NSCLC
[52] = test system: UACC-62 melanoma
[53] = test system: SK-MEL-5 melanoma
[54] = test system: HCT-116 colon
[55] = test system: CCRF-CEM leukemia
[56] = test system: T-47D breast
[57] = test system: SNB-19 CNS
[58] = test system: MOLT-4 leukemia
[59] = test system: RPMI-8226 leukemia

CCC1(CC)N=C(C(F)(F)F)c2cc(C(=O)C(F)(F)F)c3ccccc3c2N1
TGI [1]: > 100 µM
TGI [2]: 9.6 µM
TGI [3]: > 100 µM
TGI [4]: 35.3 µM
TGI [5]: 29 µM
TGI [6]: 60.7 µM
TGI [7]: 64.2 µM
TGI [8]: 9.36 µM
TGI [9]: 13.7 µM
TGI [10]: 52.2 µM
TGI [11]: > 100 µM
TGI [12]: 23 µM
TGI [13]: 12.3 µM
TGI [14]: 28.5 µM
TGI [15]: 9.87 µM
TGI [16]: 33.9 µM
TGI [17]: > 100 µM
TGI [18]: 57.3 µM
TGI [19]: 23.6 µM
TGI [20]: > 100 µM
TGI [21]: 81.4 µM
TGI [22]: > 100 µM
TGI [23]: 16.9 µM
TGI [24]: 11.2 µM
TGI [25]: 31.8 µM
TGI [26]: 58.1 µM
TGI [27]: 20.9 µM
TGI [28]: 61.3 µM
TGI [29]: 27 µM
TGI [30]: 49.7 µM
TGI [31]: > 100 µM
TGI [32]: 13.7 µM
TGI [33]: > 100 µM
TGI [34]: 15.3 µM
TGI [35]: 25.3 µM
TGI [36]: 15.7 µM
TGI [37]: 42.1 µM
TGI [38]: 23 µM
TGI [39]: 32.2 µM
TGI [40]: 11.1 µM
TGI [41]: 27.4 µM
TGI [42]: 24.1 µM
TGI [43]: 10.4 µM
TGI [44]: 28.4 µM
TGI [45]: > 100 µM
TGI [46]: > 100 µM
TGI [47]: 13.7 µM
TGI [48]: 8.25 µM
TGI [49]: 8.58 µM
TGI [50]: 21.5 µM
TGI [51]: 10.2 µM
TGI [52]: 13.3 µM
TGI [53]: 11.4 µM
TGI [54]: 16.1 µM
TGI [55]: 31.1 µM
TGI [56]: 15.2 µM
TGI [57]: > 100 µM

CO[C@]12S[C@@H]3CCCC[C@@]31C(C)(C)C(=O)N2c1ccccc1
TGI [1]: > 100 µM
TGI [2]: 51.1 µM
TGI [3]: > 100 µM
TGI [4]: > 100 µM
TGI [5]: > 100 µM
TGI [6]: > 100 µM
TGI [7]: > 100 µM
TGI [8]: > 100 µM
TGI [9]: > 100 µM
TGI [10]: > 100 µM
TGI [11]: > 100 µM
TGI [12]: > 100 µM
TGI [13]: > 100 µM
TGI [14]: 53.5 µM
TGI [15]: > 100 µM
TGI [16]: > 100 µM
TGI [17]: > 100 µM
TGI [18]: > 100 µM
TGI [58]: 78.2 µM
TGI [19]: > 100 µM
TGI [20]: > 100 µM
TGI [21]: > 100 µM
TGI [22]: > 100 µM
TGI [23]: > 100 µM
TGI [24]: > 100 µM
TGI [25]: 28.6 µM
TGI [26]: > 100 µM
TGI [59]: 73 µM
TGI [28]: > 100 µM
TGI [29]: > 100 µM
TGI [30]: 76.8 µM
TGI [31]: > 100 µM
TGI [32]: > 100 µM
TGI [33]: 96.7 µM
TGI [34]: > 100 µM
TGI [35]: > 100 µM
TGI [36]: > 100 µM
TGI [37]: 78.8 µM
TGI [38]: > 100 µM
TGI [39]: > 100 µM
TGI [40]: > 100 µM
TGI [41]: > 100 µM
TGI [42]: > 100 µM
TGI [43]: 95.5 µM
TGI [44]: 44 µM
TGI [46]: > 100 µM
TGI [47]: 56.7 µM
TGI [48]: 42.5 µM
TGI [49]: 38.5 µM
TGI [50]: > 100 µM
TGI [51]: > 100 µM
TGI [52]: > 100 µM
TGI [53]: 43.3 µM
TGI [54]: > 100 µM
TGI [55]: > 100 µM
TGI [56]: > 100 µM
TGI [57]: > 100 µM

Source: PubChem BioAssay (NCI)
